Laboratory results published in the OPERA property sets (Mansouri et al. 2018).

Conditions: not given

Question: For `Cc1ccc(CC=O)cc1`, which boiling point is on record?
Answer: 222 °C

Question: And the melting point?
Answer: 40 °C

Question: Which boiling point does the source give for `Brc1sc(Br)c(Br)c1Br` here?
Answer: 326 °C

Question: What about the melting point of the same molecule?
Answer: 118 °C

Question: With `CCCCC(O)CCCC` as the molecule, how does the boiling point read?
Answer: 193 °C

Question: Which melting point does the source give for `CCCC(=O)C1=C(O)C(C)(C)C(O)=C(Cc2c(O)c(C)c(O)c(C(=O)CCC)c2O)C1=O` here?
Answer: 156 °C

Question: Which melting point does the source give for `COC(=O)c1cc(C(=O)OC)c(C(=O)OC)cc1C(=O)OC` here?
Answer: 144 °C

Question: With `Clc1ccc(Oc2ccccc2Cl)c(Cl)c1` as the molecule, how does the log10 vapour pressure (mmHg) read?
Answer: -3.73

Question: Which melting point does the source give for `C#C[C@]1(O)CC[C@H]2[C@@H]3CCc4cc(OC)ccc4[C@H]3CC[C@@]21C` here?
Answer: 150 °C

Question: Which melting point does the source give for `Cl.NCCc1ccc(O)cc1` here?
Answer: 272 °C

Question: What does the source list for `Cc1ccc([N+](=O)[O-])cc1Cl`?
Answer: boiling point: 260 °C; melting point: 66.5 °C; ready biodegradability: not readily biodegradable

Question: Which boiling point does the source give for `C[Si](C)(C)O[Si](C)(C)O[Si](C)(C)C` here?
Answer: 153 °C

Question: And the log10 Henry constant (atm·m³/mol)?
Answer: 1.49

Question: And the log10 vapour pressure (mmHg)?
Answer: 0.524

Question: What about the melting point of the same molecule?
Answer: -80 °C

Question: Which melting point does the source give for `O=C(O)c1c(F)cccc1F` here?
Answer: 159 °C

Question: For `O=Cc1cccc(C(=O)O)c1`, which melting point is on record?
Answer: 174 °C

Question: Which boiling point does the source give for `Clc1cc(Cl)c(Cl)c(Cl)c1Cl` here?
Answer: 277 °C

Question: And the log10 Henry constant (atm·m³/mol)?
Answer: -3.15

Question: What about the log10 Koa of the same molecule?
Answer: 6.49

Question: What about the log10 Koc (L/kg) of the same molecule?
Answer: 3.5

Question: What about the log10 vapour pressure (mmHg) of the same molecule?
Answer: -3

Question: And the melting point?
Answer: 86 °C

Question: What about the ready biodegradability of the same molecule?
Answer: not readily biodegradable

Question: For `C=CCI`, which boiling point is on record?
Answer: 103 °C

Question: And the melting point?
Answer: -99.3 °C

Question: Which boiling point does the source give for `CCOC(=O)C(OCC)OCC` here?
Answer: 199 °C

Question: Which boiling point does the source give for `BrCc1ccc(CBr)cc1` here?
Answer: 245 °C

Question: What about the melting point of the same molecule?
Answer: 144 °C

Question: Which melting point does the source give for `ON=C(C(=NO)c1ccco1)c1ccco1` here?
Answer: 167 °C

Question: Which boiling point does the source give for `COC(=O)C(F)(F)C(F)(F)C(F)(F)C(F)(F)C(F)(F)C(F)(F)C(F)(F)F` here?
Answer: 158 °C

Question: With `CC[C@H](C)CC=O` as the molecule, how does the boiling point read?
Answer: 121 °C

Question: With `O=C(O)C(F)(F)C(F)(F)C(F)(F)C(=O)O` as the molecule, how does the melting point read?
Answer: 80 °C

Question: Which melting point does the source give for `COc1ccc(-c2coc3cc(O)ccc3c2=O)cc1` here?
Answer: 256 °C

Question: With `Cc1cc(O)c([N+](=O)[O-])cc1Cl` as the molecule, how does the log10 vapour pressure (mmHg) read?
Answer: -3.07

Question: What about the melting point of the same molecule?
Answer: 133 °C

Question: Which boiling point does the source give for `CC1(C)C2CCC(C=O)C1C2` (configuration not stated) here?
Answer: 220 °C

Question: For `CC(=O)CC(c1ccc(Cl)cc1)c1c(O)c2ccccc2oc1=O` (configuration not stated), which melting point is on record?
Answer: 169 °C

Question: Which log10 vapour pressure (mmHg) does the source give for `O=Cc1ccc(O)c([N+](=O)[O-])c1` here?
Answer: -3.05

Question: What about the melting point of the same molecule?
Answer: 141 °C

Question: Which results are given for `Cc1cccc2ccoc12`?
Answer: boiling point: 190 °C; melting point: 109 °C

Question: Which results are given for `CCC(C)n1c(=O)[nH]c(C)c(Br)c1=O` (configuration not stated)?
Answer: log10 Koc (L/kg): 1.6; log10 vapour pressure (mmHg): -6.51; melting point: 158 °C

Question: For `CCOC(=O)[N-]c1c[n+](N2CCOCC2)no1`, which melting point is on record?
Answer: 140 °C

Question: What does the source list for `OC[C@@H](O)[C@@H](O)CO`?
Answer: boiling point: 330 °C; melting point: 122 °C

Question: With `Clc1c2ccccc2nc2ccccc12` as the molecule, how does the melting point read?
Answer: 121 °C

Question: For `CCC(=O)O[C@H]1CC[C@@]2(C)C(=CC[C@H]3[C@@H]4CC[C@H](OC(=O)CC)[C@@]4(C)CC[C@@H]32)C1`, which melting point is on record?
Answer: 113 °C

Question: For `COc1ccccc1NC(N)=S`, which melting point is on record?
Answer: 156 °C

Question: With `CC1(C)COC(C)(C)C1` as the molecule, how does the boiling point read?
Answer: 121 °C

Question: Which melting point does the source give for `Brc1cc(Br)c(Br)cc1Br` here?
Answer: 182 °C

Question: For `CC#CCCCCCC`, which boiling point is on record?
Answer: 162 °C

Question: With `O=C(Cl)C(c1ccccc1)c1ccccc1` as the molecule, how does the melting point read?
Answer: 56.5 °C

Question: Which melting point does the source give for `CN(C)CC(=O)O` here?
Answer: 186 °C

Question: For `O=Cc1ccc(Cl)cc1`, which boiling point is on record?
Answer: 214 °C

Question: And the melting point?
Answer: 47.5 °C

Question: For `CC(Cl)(Cl)C(=O)[O-].[Na+]`, which melting point is on record?
Answer: 166 °C

Question: Which log10 vapour pressure (mmHg) does the source give for `CCCCCCCCCCCCCCCCCCCC(=O)OCC` here?
Answer: -7.72

Question: And the melting point?
Answer: 50 °C

Question: Which melting point does the source give for `Cc1cc(Br)ccc1[N+](=O)[O-]` here?
Answer: 78 °C

Question: Which boiling point does the source give for `CC1CCc2ccccc2O1` (configuration not stated) here?
Answer: 224 °C

Question: What does the source list for `CCCCCCCCCc1ccccc1`?
Answer: boiling point: 280 °C; log10 vapour pressure (mmHg): -2.24; melting point: -24 °C

Question: For `FC(F)(F)C(F)(Cl)Cl`, which boiling point is on record?
Answer: 4 °C

Question: And the log10 vapour pressure (mmHg)?
Answer: 3.21

Question: And the melting point?
Answer: -56.6 °C

Question: For `O=C(Nc1ccccc1)NC1CC1`, which log10 Koc (L/kg) is on record?
Answer: 1.74

Question: For `CC(C)CSCC(C)C`, which boiling point is on record?
Answer: 171 °C

Question: What about the melting point of the same molecule?
Answer: -106 °C

Question: Which boiling point does the source give for `CCC(=O)C=C(C)CC` here?
Answer: 166 °C

Question: With `CCCCCCCCCCOc1c(OC)cc(C(N)=O)cc1OC` as the molecule, how does the melting point read?
Answer: 122 °C

Question: With `CCOC(=O)CCN(SN(C)C(=O)Oc1cccc2c1OC(C)(C)C2)C(C)C` as the molecule, how does the log10 vapour pressure (mmHg) read?
Answer: -6.7

Question: With `CN(C)C1CSSC1` as the molecule, how does the melting point read?
Answer: 177 °C

Question: Which melting point does the source give for `C=CCN1CC[C@]23CCCC[C@H]2[C@H]1Cc1ccc(O)cc13` here?
Answer: 181 °C

Question: For `NC(=O)C1CCN(CCCN2c3ccccc3Sc3ccc(Cl)cc32)CC1`, which melting point is on record?
Answer: 139 °C

Question: Which boiling point does the source give for `CC1CCCC1(C)C` (configuration not stated) here?
Answer: 114 °C

Question: And the melting point?
Answer: -21.6 °C

Question: For `O=Cc1cccnc1`, which log10 Henry constant (atm·m³/mol) is on record?
Answer: -6.82

Question: Which results are given for `COCCO`?
Answer: boiling point: 124 °C; log10 Henry constant (atm·m³/mol): -6.48; log10 vapour pressure (mmHg): 0.978; ready biodegradability: readily biodegradable

Question: Which melting point does the source give for `C=Cc1scnc1C` here?
Answer: -15 °C

Question: With `CCCOC(=O)CCCCC(=O)OCCC` as the molecule, how does the melting point read?
Answer: -15.7 °C

Question: With `CCCC(CC)C(C)(C)C` (configuration not stated) as the molecule, how does the boiling point read?
Answer: 156 °C

Question: With `O=C1c2c(Br)c(Br)c(Br)c(Br)c2C(=O)N1CCN1C(=O)c2c(Br)c(Br)c(Br)c(Br)c2C1=O` as the molecule, how does the melting point read?
Answer: 445 °C

Question: Which melting point does the source give for `CCc1cn([C@H]2C[C@H](O)[C@@H](CO)O2)c(=O)[nH]c1=O` here?
Answer: 152 °C

Same assay, conditions: fish

Question: For `Cc1cc2ccccc2cc1C`, which log10 biotransformation half-life (days) is on record?
Answer: 0.03

Question: With `Nc1cccc2c(N)cccc12` as the molecule, how does the log10 BCF read?
Answer: 0.65

Question: And the log10 biotransformation half-life (days)?
Answer: -0.52

Question: With `Clc1ccc(Cl)c(-c2c(Cl)cc(Cl)c(Cl)c2Cl)c1` as the molecule, how does the log10 biotransformation half-life (days) read?
Answer: 2.23

Question: With `[2H]C([2H])([2H])C([2H])([2H])C([2H])([2H])C([2H])([2H])C([2H])([2H])C([2H])([2H])C([2H])([2H])C([2H])([2H])C([2H])([2H])C([2H])([2H])C([2H])([2H])C([2H])([2H])C([2H])([2H])C([2H])([2H])C([2H])([2H])C([2H])([2H])[2H]` as the molecule, how does the log10 biotransformation half-life (days) read?
Answer: 1.47

Question: For `Brc1ccc(Oc2ccc(Br)c(Br)c2)c(Br)c1`, which log10 BCF is on record?
Answer: 6.05

Question: For `Clc1cc(Cl)c(Cl)c(Cl)c1Cl`, which log10 BCF is on record?
Answer: 3.75

Question: What about the log10 biotransformation half-life (days) of the same molecule?
Answer: 1.87

Question: Which log10 BCF does the source give for `CCC(C)n1c(=O)[nH]c(C)c(Br)c1=O` (configuration not stated) here?
Answer: 0.51

Question: And the log10 biotransformation half-life (days)?
Answer: -1.33

Question: What does the source list for `Brc1cc(Br)c(Br)cc1Br`?
Answer: log10 BCF: 3.59; log10 biotransformation half-life (days): 1.35

Question: Which log10 BCF does the source give for `O=Cc1ccc(Cl)cc1` here?
Answer: 0.32

Question: What about the log10 biotransformation half-life (days) of the same molecule?
Answer: 0.01

Question: Which log10 BCF does the source give for `CN(C)C1CSSC1` here?
Answer: 1.72
